As usually defined, the Ki is the equilibrium dissociation constant of an inhibitor or competing ligand from its target. Read a low Ki as higher affinity.

This assay in a line: Tested for activity against 5-hydroxytryptamine 1A receptor from bovine hippocampus.
`COc1cccc2c1C[C@H]1CCN(Cc3ccccc3)[C@@H]1C2` registered a Ki of 127 nM. This lies in the sub-micromolar range.

Compound `C=CCN1C[C@H]2c3c(cccc3OC)CC[C@H]21` registered a Ki of 5.9 nM.

`CCCN1CC[C@@H]2c3ccccc3CC[C@H]21`: the Ki came to 44 nM.

The compound `COc1cccc2c1CC[C@@H]1[C@@H]2CCN1CC1CC1` gave a Ki of 66 nM.

In the case of `C=CCN1CC[C@H]2c3ccccc3CC[C@H]21`, the Ki turned out to be 31 nM.

Compound `CCCN1CC[C@H]2c3ccccc3CC[C@H]21` came in with a Ki of 37 nM.

In turn, `COc1cccc2c1C[C@H]1CCN(CC3CC3)[C@@H]1C2` came in with a Ki of 29 nM.

`COc1cccc2c1C[C@H]1CCN(CC3CC3)[C@H]1C2` yielded a Ki of 721 nM.

`COc1cccc2c1C[C@H]1CCN[C@@H]1C2`: the Ki came out at 29 nM.

Take `CCCN1CC[C@H]2c3c(cccc3OC)CC[C@H]21`: the affinity, expressed as Ki, was 186 nM.

`C=CCN1C[C@H]2c3c(O)cccc3CC[C@H]21` yielded a Ki of 0.3 nM.

Regarding `C=CCN1CC[C@@H]2c3ccccc3CC[C@H]21`, the Ki was 11 nM.

For the origin of these results see ChEMBL document CHEMBL1128296, “Quantitative binding site model generation: compass applied to multiple chemotypes targeting the 5-HT1A receptor” (J Med Chem, 1995).
